Patent publication US20250376689A1, “OLIGONUCLEOTIDES HAVING 6-THIO-2'-DEOXYGUANOSINE RESIDUES AND USES THEREOF” (City of Hope, priority 2021, published 2025)

Assays:
[1] = tested on: TBK1 signaling downstream from STING; assay: Western blot of activated and total TBK1 in DCs co-cultured with pretreated RM9 cells; type: cell-based, mouse
Method: FIG. 8A: RM9 prostate cancer cells were treated with a combination of 5 μM 6tdG and 1 μM CpG, 1 μM CpG(6tdG)6-p or PBS overnight, washed and incubated for the additional 3 days in fresh media. The dying cancer cells were then harvested and co-cultured for 18 h with freshly isolated, mouse primary splenic DC at a ratio of 1:10. The percentages of activated DCs (CD11c+MHC II+/CD80+ or CD86+) were analyzed by flow cytometry. FIG. 8B: Bone-marrow derived dendritic cells (BMDCs) were co-cultured with cancer cells in the presence of CpG alone, 6tdG alone, combination of CpG and 6tdG, or CpG(6tdG)6-p for 3 days. The expression of IFN-β mRNA was analyzed by real-time qPCR. Shown are results from three independent experiments; means±SEM (n=3); ****P<0.0001; *P<0.05 compared to the untreated group. FIG. 8C: TBK1 signaling downstream from STING is activated in primary mouse DCs co-cultured with RM9 cells pretreated using 6tdG alone, in combination with CpG or by CpG-(6tdG)6-p oligomer. The protein content of dendritic cells was analyzed using western blot to evaluate levels of activated and total TBK1. The protein levels were normalized to beta-actin and quantified densitometrically.

[2] = tested on: telomerase-negative normal cells; conditions: cited from earlier work
activated T cells = assay: Viability of CD3/CD28-activated human T cells (flow cytometry); type: cell-based; conditions: human T cells activated with CD3/CD28 beads and IL-2
Method: (§1) PMBCs from 3 healthy donors were seeded at a density of 10^7/mL and treated with CpG alone, 6tdG alone, combination of CpG and 6tdG, CpG(6tdG)6-p, CpG(6tdG)5G for 2 days. Cell apoptosis was measured using flow cytometry after staining for Annexin V and 7AAD. Representative results obtained from 3 independent experiments; means±SEM (n=3). (FIG. 4B) Human T cells isolated from 3 healthy donor PBMCs using negative selection were activated with CD3/CD28 beads in the presence of 20 ng/mL human IL-2 to induce proliferation. After activation, T cells were incubated in the presence of CpG alone, 6tdG alone, combination of CpG and 6tdG, CpG(6tdG)6-p or CpG(6tdG)5G for the indicated times before subject to viability analysis in flow cytometry. (FIG. 4C) Activated and proliferating T cells, but not naïve/resting T cells, have high levels of telomerase activity. The telomerase activity was assayed using TRAPeze kit (EMD Millipore), a telomerase repeated amplification protocol, and PCR products were qualitatively analyzed in a PAGE gel.

[3] = tested on: resting human lymphocytes; assay: Apoptosis/viability of resting human PBMCs (Annexin V/7AAD flow cytometry); type: cell-based; conditions: PBMCs from 3 healthy donors, treated 2 days
Method: as §1

**Q.** For `Nc1nc2c(ncn2[C@H]2C[C@H](O)[C@@H](CO)O2)c(=S)[nH]1` [6tdG, 6-thio-2′-deoxyguanosine], which “TBK1 signaling in primary mouse DCs” value [1] is on record?
**A.** activated

**Q.** And the “cytotoxic effects on telomerase-negative normal cells” value [2]?
**A.** minimal cytotoxic effects

**Q.** What about the “cytotoxicity to activated T cells” value (activated T cells) of the same compound?
**A.** cytotoxic to activated T cells

**Q.** What about the “viability of resting human lymphocytes” value [3] of the same compound?
**A.** Neither 6tdG nor CpG-6tdG oligomers affect viability
